Our source for the Ki values is BindingDB's records for doi:10.1021/bi7019707 (Emory University, 2008).

Holding throughout (experiment): Inhibition Assay
Experiment [1] addresses T1, Amine oxidase [flavin-containing] A (Homo sapiens, UniProt P21397).
T1 sequence (P21397 whole entry): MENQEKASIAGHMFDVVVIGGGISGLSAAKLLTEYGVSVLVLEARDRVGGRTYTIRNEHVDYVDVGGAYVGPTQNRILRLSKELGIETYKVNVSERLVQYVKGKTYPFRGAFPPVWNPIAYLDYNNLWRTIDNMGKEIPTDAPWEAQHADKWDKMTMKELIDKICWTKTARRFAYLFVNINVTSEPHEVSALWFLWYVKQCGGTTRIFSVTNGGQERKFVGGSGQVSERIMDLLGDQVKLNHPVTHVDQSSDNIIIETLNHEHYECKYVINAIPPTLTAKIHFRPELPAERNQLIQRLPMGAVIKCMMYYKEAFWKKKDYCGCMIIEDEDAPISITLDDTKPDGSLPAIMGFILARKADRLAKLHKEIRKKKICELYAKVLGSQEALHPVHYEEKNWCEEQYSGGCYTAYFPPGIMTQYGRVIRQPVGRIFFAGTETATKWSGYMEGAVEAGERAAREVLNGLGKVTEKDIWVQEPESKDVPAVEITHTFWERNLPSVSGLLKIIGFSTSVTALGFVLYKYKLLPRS
The text has this:
(§1) Competitive inhibition assay using human and rat MAOs.

In experiment [2] the target is T2, Amine oxidase [flavin-containing] A (Rattus norvegicus, UniProt P21396).
T2 sequence (P21396 whole entry): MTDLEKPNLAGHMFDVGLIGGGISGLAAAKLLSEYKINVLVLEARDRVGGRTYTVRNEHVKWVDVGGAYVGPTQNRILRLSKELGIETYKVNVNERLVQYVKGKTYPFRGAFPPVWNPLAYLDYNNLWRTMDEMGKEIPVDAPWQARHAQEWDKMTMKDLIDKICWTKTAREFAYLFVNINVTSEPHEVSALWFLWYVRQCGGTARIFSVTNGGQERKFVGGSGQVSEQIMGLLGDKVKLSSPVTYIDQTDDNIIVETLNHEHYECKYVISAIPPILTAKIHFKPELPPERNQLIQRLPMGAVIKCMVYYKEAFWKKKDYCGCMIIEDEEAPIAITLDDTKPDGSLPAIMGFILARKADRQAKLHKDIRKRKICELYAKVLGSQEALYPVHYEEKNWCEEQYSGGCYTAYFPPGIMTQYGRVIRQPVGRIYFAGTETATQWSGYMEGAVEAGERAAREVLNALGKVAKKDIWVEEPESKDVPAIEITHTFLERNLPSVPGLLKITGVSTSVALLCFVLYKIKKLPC
Text: as §1

Experiment [3] addresses T3, Amine oxidase [flavin-containing] B (Homo sapiens, UniProt P27338).
T3 sequence (P27338 whole entry): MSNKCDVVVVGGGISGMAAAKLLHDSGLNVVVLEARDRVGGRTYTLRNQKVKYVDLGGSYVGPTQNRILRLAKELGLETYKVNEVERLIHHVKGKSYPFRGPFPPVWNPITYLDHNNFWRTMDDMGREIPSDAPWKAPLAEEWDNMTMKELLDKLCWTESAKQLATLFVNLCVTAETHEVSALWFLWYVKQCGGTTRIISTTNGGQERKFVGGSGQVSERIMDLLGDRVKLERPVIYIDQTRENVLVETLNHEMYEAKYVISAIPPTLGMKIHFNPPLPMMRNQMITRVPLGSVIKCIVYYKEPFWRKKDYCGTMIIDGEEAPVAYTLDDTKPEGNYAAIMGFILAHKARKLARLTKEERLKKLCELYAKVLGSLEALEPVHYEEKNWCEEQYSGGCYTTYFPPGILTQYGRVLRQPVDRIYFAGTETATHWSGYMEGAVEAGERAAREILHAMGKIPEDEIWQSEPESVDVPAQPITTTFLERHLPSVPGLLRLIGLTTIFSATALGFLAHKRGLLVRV
Text: as §1

The target in experiment [4] is T4, Amine oxidase [flavin-containing] B (Rattus norvegicus, UniProt P19643).
T4 sequence (P19643 whole entry): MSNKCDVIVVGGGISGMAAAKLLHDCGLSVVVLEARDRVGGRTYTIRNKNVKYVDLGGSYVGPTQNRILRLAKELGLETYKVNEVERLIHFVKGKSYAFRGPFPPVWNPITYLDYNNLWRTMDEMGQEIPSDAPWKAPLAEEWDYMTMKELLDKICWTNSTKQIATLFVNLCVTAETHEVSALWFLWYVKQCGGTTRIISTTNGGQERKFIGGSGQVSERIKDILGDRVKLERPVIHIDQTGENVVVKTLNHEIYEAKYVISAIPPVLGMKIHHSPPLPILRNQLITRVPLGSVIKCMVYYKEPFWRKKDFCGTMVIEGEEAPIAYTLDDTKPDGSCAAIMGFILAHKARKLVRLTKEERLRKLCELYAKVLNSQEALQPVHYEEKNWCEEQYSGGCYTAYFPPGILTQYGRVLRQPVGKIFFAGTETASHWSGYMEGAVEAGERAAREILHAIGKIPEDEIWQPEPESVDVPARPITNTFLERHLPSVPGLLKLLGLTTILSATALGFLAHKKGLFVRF
Text: as §1

For the compound `C#CCN(C)Cc1ccc(CC(=O)NC2CC(C)(C)N(O)C(C)(C)C2)cc1` [ParSL], the Ki turned out to be 212 µM in experiment [1], 151 µM in experiment [2], 22 µM in experiment [3] and 107 µM in experiment [4].

For orientation: Ki means a measure of affinity in units of concentration, obtained from inhibition or displacement. Read a high Ki as weaker binding.
